Assay results reported in ChEMBL document CHEMBL3259686, “Biologically active dichapetalins from Dichapetalum gelonioides” (J Nat Prod, 2014).
Calls of active or inactive are those of the source. No cut-off for these calls is given here.

What was measured:
Panagrellus redivivus = assay: Nematicidal activity against Panagrellus redivivus assessed as mortality at 100 ug/ml after 72 hrs by light binocular microscopic analysis (reference value: 7.1 +/- 0.9%); assay type: functional
Spodoptera exigua = assay: Antifeedant activity against beet armyworm after 24 hrs; assay type: functional, organism-based
HCT-116 = assay: Cytotoxicity against human HCT116 cells; assay type: functional, cell-based
[1] = Cytotoxicity against human WM266.4 cells; assay type: functional, cell-based; details: WM 266-4
HL-60 = assay: Cytotoxicity against human HL60 cells after 48 hrs by MTS assay; assay type: functional, cell-based; details: HL-60, 48 h
SW480 = assay: Cytotoxicity against human SW480 cells after 48 hrs by MTS assay; assay type: functional, cell-based; details: SW480, 48 h
SMMC-7721 = assay: Cytotoxicity against human SMMC7721 cells after 48 hrs by MTS assay; assay type: functional, cell-based; details: SMMC-7721, 48 h
A549 = assay: Cytotoxicity against human A549 cells after 48 hrs by MTS assay; assay type: functional, cell-based; details: A549, 48 h
MCF7 = assay: Cytotoxicity against human MCF7 cells after 48 hrs by MTS assay; assay type: functional, cell-based; details: MCF7, 48 h
[2] = system: Fusarium oxysporum f. sp. niveum; assay: Antifungal activity against Fusarium oxysporum f. sp. niveum at 50 ug/disc after 2 days by disk diffusion method; assay type: functional; details: for zone of inhibition at 50 µg/disc: 48 h, read-out: DIZ
[3] = system: Colletotrichum gloeosporioides; assay: Antifungal activity against Colletotrichum gloeosporioides at 50 ug/disc after 2 days by disk diffusion method; assay type: functional; details: for zone of inhibition at 50 µg/disc: 48 h, read-out: DIZ
Rhizoctonia solani = assay: Antifungal activity against Rhizoctonia solani at 50 ug/disc after 2 days by disk diffusion method; assay type: functional; details: for zone of inhibition at 50 µg/disc: 48 h, read-out: DIZ
[4] = Antifungal activity against Cylindrocarpon musae at 50 ug/disc after 2 days by disk diffusion method; assay type: functional
RAW264.7 [5] = assay: Inhibition of LPS-induced nitric oxide production in mouse RAW264.7 cells by Griess method; assay type: functional, cell-based
RAW264.7 [6] = assay: Ratio of MG132 IC50 to compound IC50 for LPS-induced nitric oxide production in mouse RAW264.7 cells; assay type: functional
RAW264.7 [7] = assay: Cytotoxicity against mouse RAW264.7 cells by MTT assay; assay type: cell-based

COc1ccc([C@@H]2CC3=CC[C@@]4(C)[C@@H](CC(=O)[C@]5(C)[C@@H]4C=C[C@]46C[C@@]45CC[C@H]6[C@@H]4C[C@]5(C[C@@](C)(OC(=O)C[C@@H](O)c6ccc(O)cc6)CO5)OC4=O)[C@@]3(C)CO2)cc1
mortality at 100 µg/mL (Panagrellus redivivus): 4.8%
EC50 (Spodoptera exigua): > 100 microg/cm2

C/C(=C\[C@H]1C[C@@H]([C@@H]2CC=C3[C@]4(C)[C@H](O)C[C@@H]5[C@](C)(CC=C6C[C@@H](c7ccccc7)OC[C@@]65C)[C@H]4CC[C@]32C)C(=O)O1)CO
mortality at 100 µg/mL (Panagrellus redivivus): 3%
EC50 (Spodoptera exigua): 3.4 microg/cm2

CC(=O)O[C@@]1(C)CO[C@@]2(C1)OC(=O)[C@H]([C@@H]1CC[C@]34C[C@]13C=C[C@@H]1[C@@]3(C)CC=C5C[C@@H](c6ccccc6)OC[C@]5(C)[C@@H]3[C@@H](O)C(=O)[C@]14C)[C@H]2O
EC50 (HCT-116): 0.0099 µM
EC50 [1]: 0.078 µM

COc1ccc([C@@H]2CC3=CC[C@@]4(C)[C@@H](CC(=O)[C@]5(C)[C@@H]4C=C[C@]46C[C@@]45CC[C@H]6[C@@H]4C[C@@]5(OC[C@](C)(OC(=O)CCc6ccc(O)cc6)[C@H]5O)OC4=O)[C@@]3(C)CO2)cc1
IC50 (HL-60): > 40 µM
IC50 (SW480): > 40 µM
mortality at 100 µg/mL (Panagrellus redivivus): 7.8%
IC50 (SMMC-7721): > 40 µM
IC50 (A549): > 40 µM
EC50 (Spodoptera exigua): 28.9 microg/cm2
IC50 (MCF7): > 40 µM

NYSTATIN
inhibition zone (IZ) [2]: 12 mm
inhibition zone (IZ) [3]: 14.5 mm
inhibition zone (IZ) (Rhizoctonia solani): 14.7 mm
inhibition zone (IZ) [4]: 16.6 mm

C[C@]1(O)CO[C@@]2(C1)OC(=O)[C@H]([C@@H]1CC[C@]34C[C@]13C=C[C@@H]1[C@@]3(C)CC=C5C[C@@H](c6ccccc6)OC[C@]5(C)[C@@H]3CC(=O)[C@]14C)[C@H]2O
mortality at 100 µg/mL (Panagrellus redivivus): 46.3%

CC(=O)O[C@@]1(C)CO[C@@]2(C[C@@H]([C@@H]3CC[C@]45C[C@]34C=C[C@@H]3[C@@]4(C)CC=C6C[C@@H](c7ccccc7)OC[C@]6(C)[C@@H]4CC(=O)[C@]35C)C(=O)O2)C1
zone of inhibition at 50 µg/disc [2]: 11.5 mm
zone of inhibition at 50 µg/disc [3]: 10.1 mm
diameter of the inhibition zone (DIZ) (Rhizoctonia solani): inactive
inhibition zone (IZ) [4]: 13.8 mm
EC50 (Spodoptera exigua): 11.7 microg/cm2

COC(=O)[C@@H](C[C@@]1(OC)C[C@](C)(O)CO1)[C@@H]1CC[C@]23C[C@]12C=C[C@@H]1[C@@]2(C)CC=C4C[C@@H](c5ccccc5)OC[C@]4(C)[C@@H]2CC(=O)[C@]13C
EC50 (Spodoptera exigua): 3.1 microg/cm2

COc1ccc([C@@H]2CC3=CC[C@]4(C)[C@H]5C=C[C@]67C[C@]6(CC[C@H]7[C@@H]6C[C@H](/C=C(\C)CO)OC6=O)[C@]5(C)[C@H](O)C[C@H]4[C@@]3(C)CO2)cc1 [DICHAPETALIN K]
mortality at 100 µg/mL (Panagrellus redivivus): 4.4%

COC(=O)[C@@H](Cc1cc(C)co1)[C@@H]1CC[C@]23C[C@]12C=C[C@@H]1[C@@]2(C)CC=C4C[C@@H](c5ccccc5)OC[C@]4(C)[C@@H]2CC(=O)[C@]13C
IC50 (HL-60): 10.2 µM
IC50 (SW480): > 40 µM
mortality at 100 µg/mL (Panagrellus redivivus): 2.5%
IC50 (SMMC-7721): 24.8 µM
IC50 (A549): 17.6 µM
EC50 (Spodoptera exigua): > 100 microg/cm2
IC50 (MCF7): 21 µM

C[C@]1(OC(=O)C[C@@H](O)c2ccc(O)cc2)CO[C@@]2(C[C@@H]([C@@H]3CC[C@]45C[C@]34C=C[C@@H]3[C@@]4(C)CC=C6C[C@@H](c7ccccc7)OC[C@]6(C)[C@@H]4CC(=O)[C@]35C)C(=O)O2)C1
IC50 (HL-60): > 40 µM
zone of inhibition at 50 µg/disc [2]: 12.8 mm
zone of inhibition at 50 µg/disc [3]: 12.4 mm
IC50 (SW480): > 40 µM
mortality at 100 µg/mL (Panagrellus redivivus): 20.5%
zone of inhibition at 50 µg/disc (Rhizoctonia solani): 13.8 mm
inhibition zone (IZ) [4]: 12.8 mm
IC50 (SMMC-7721): > 40 µM
IC50 (A549): 26.8 µM
EC50 (Spodoptera exigua): 78.7 microg/cm2
IC50 (MCF7): 8.2 µM

C/C(=C\[C@H]1C[C@@H]([C@@H]2CC[C@]34C[C@]23C=C[C@@H]2[C@@]3(C)CC=C5C[C@@H](c6ccccc6)OC[C@]5(C)[C@@H]3C[C@@H](O)[C@]24C)C(=O)O1)CO [DICHAPETALIN A]
diameter of the inhibition zone (DIZ) [2]: inactive
diameter of the inhibition zone (DIZ) [3]: inactive
mortality at 100 µg/mL (Panagrellus redivivus): 15.3%
IC50 (RAW264.7 [5]): 0.02 µM
zone of inhibition at 50 µg/disc (Rhizoctonia solani): 10.5 mm
Ratio IC50 (RAW264.7 [6]): 20
inhibition zone (IZ) [4]: 12.8 mm
EC50 (Spodoptera exigua): 3.1 microg/cm2
Activity (RAW264.7 [7]): Non-toxic

C[C@]1(OC(=O)C[C@@H](O)c2ccc(O)cc2)CO[C@@]2(C1)OC(=O)[C@H]([C@@H]1CC[C@]34C[C@]13C=C[C@@H]1[C@@]3(C)CC=C5C[C@@H](c6ccccc6)OC[C@]5(C)[C@@H]3CC(=O)[C@]14C)[C@H]2O
IC50 (HL-60): 5.1 µM
IC50 (SW480): 21 µM
IC50 (SMMC-7721): 18.7 µM
IC50 (A549): 3 µM
IC50 (MCF7): 3.5 µM

C[C@]12CC=C3C[C@@H](c4ccccc4)OC[C@]3(C)[C@@H]1C[C@@H](O)[C@]1(C)[C@@H]2C=C[C@]23C[C@]12CC[C@H]3[C@@H]1C[C@@]2(OC[C@](C)(OC(=O)CCc3ccc(O)cc3)[C@H]2O)OC1=O
mortality at 100 µg/mL (Panagrellus redivivus): 61.8%
EC50 (Spodoptera exigua): 9.8 microg/cm2
